Consider 15 compounds from US9464064B2, “HCV helicase inhibitors and methods of use thereof” (University of Kansas, priority 2011, dated 2016).

Like-named read-outs stand apart in the source and are kept apart here.

The subject of assay [1] is HCV RLuc subgenomic replicon (genotype 1b) in Huh-7.5 cells. As to the kind of experiment: HCV subgenomic replicon assay (Renilla luciferase). Format: cell-based, hepatitis C virus. The note with it: for inhibition at 10 µM: Hepatitis C virus, Huh7.5, 10 μM, read-out: Replicon (% Inhibition @ 10 μM). The method, boiled down: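 Huh-7.5 cells stably harbouring the genotype 1b HCV RLuc subgenomic replicon were treated with compound at 10 μM final (0.5% DMSO) for 72 h at 37 °C. Replication was assessed as Renilla luciferase activity in lysates relative to DMSO-treated cells.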
(In antiviral work, replicon cells carry a viral genome segment that copies itself.)

For another assay, the target named is T1, NS3h_2a(JFH1) (Hepatitis C virus genotype 2a, UniProt Q99IB8).
T1 construct: truncated C-terminally His-tagged NS3 proteins lacking the N-terminal protease, called NS3h; His-tag (C); made in house
As to the kind of experiment: MBHA, DNA substrate, genotype 2a helicase. In kind it is biochemical, hepatitis C virus genotype 2a(JFH1). Summed up:
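Inhibition of DNA unwinding by C-terminally His-tagged recombinant NS3 helicase domain (no protease) from HCV genotype 2a JFH1 strain, measured by molecular beacon-based helicase assay (MBHA).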

Setting [2] is: genotype 2a (JFH1), read-out: Target Potency MBHA (IC50 avg., μM) 2a (JFH1) (converted).

T1 sequence (Q99IB8 1196-1661): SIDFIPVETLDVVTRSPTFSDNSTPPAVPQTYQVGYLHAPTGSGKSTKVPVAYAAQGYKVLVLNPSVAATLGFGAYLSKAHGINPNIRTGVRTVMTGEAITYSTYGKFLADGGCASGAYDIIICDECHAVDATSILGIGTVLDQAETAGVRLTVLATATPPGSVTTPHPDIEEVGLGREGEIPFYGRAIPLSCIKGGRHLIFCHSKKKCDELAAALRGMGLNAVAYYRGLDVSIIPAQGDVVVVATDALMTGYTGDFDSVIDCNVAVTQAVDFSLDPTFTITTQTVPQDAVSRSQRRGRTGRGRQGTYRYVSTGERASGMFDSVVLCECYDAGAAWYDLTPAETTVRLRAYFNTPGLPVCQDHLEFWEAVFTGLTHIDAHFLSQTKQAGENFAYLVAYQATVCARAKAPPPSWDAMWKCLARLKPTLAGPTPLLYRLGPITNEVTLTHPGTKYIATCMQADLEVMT

For the compound `Cc1ccc2nc(-c3ccc(NC(=O)c4ccc(NC(=O)OCC5c6ccccc6-c6ccccc65)cc4)cc3)sc2c1S(=O)(=O)O.N` [Compound 42], in assay [1], the inhibition (as a rule, the drop in the measured response relative to a control, in per cent) at 10 µM came out at 31 ± 10%. The IC50 (commonly the midpoint of a concentration-inhibition curve) at NS3h_2a(JFH1) (setting [2]) is 12 µM.

As for `Cc1ccc2nc(-c3ccc(NC(=O)c4ccc(NC(=S)Nc5ccccc5)cc4)cc3)sc2c1S(=O)(=O)O.N` [Compound 43], the inhibition at 10 µM in assay [1] is -13 ± 2%. In addition, the IC50 at NS3h_2a(JFH1) (setting [2]) was 29 µM.

Take `Cc1ccc2nc(-c3ccc(NC(=O)c4ccc(NC(=O)c5ccc(C(F)(F)F)cc5)cc4)cc3)sc2c1S(=O)(=O)O.N` [Compound 44]: the inhibition at 10 µM in assay [1] came out at 4 ± 8%. The IC50 at NS3h_2a(JFH1) (setting [2]) is 14.7 µM.

As to `Cc1ccc2nc(-c3ccc(NC(=O)c4ccc(NC(=O)Nc5ccccc5)cc4)cc3)sc2c1S(=O)(=O)O.N` [Compound 45], in assay [1], the inhibition at 10 µM is -64 ± 90%. Also, the IC50 on NS3h_2a(JFH1) (setting [2]) was 32 µM.

For the compound `Cc1ccc2nc(-c3ccc(NC(=O)c4ccc(NC(=O)c5ccc(N)cc5)cc4)cc3)sc2c1S(=O)(=O)O.N` [Compound 46], the inhibition at 10 µM in assay [1] is -42 ± 26%. Also, the IC50 at NS3h_2a(JFH1) (setting [2]) was 26 µM.

For the compound `Cc1ccc2nc(-c3ccc4nc(-c5ccc(NC(=O)Nc6ccc(C(F)(F)F)cc6)cc5)sc4c3)sc2c1S(=O)(=O)O.N` [Compound 47], the inhibition at 10 µM in assay [1] worked out at 7 ± 39%. In addition, the half-maximal inhibitory concentration (IC50) on NS3h_2a(JFH1) (setting [2]) is 4 µM.

As to `Cc1ccc2nc(-c3ccc4nc(-c5ccc(NC(=O)Nc6ccc(F)cc6)cc5)sc4c3)sc2c1S(=O)(=O)O.N` [Compound 48], in assay [1], the inhibition at 10 µM was found to be 17 ± 25%. On NS3h_2a(JFH1) (setting [2]), the IC50 was 9.9 µM.

With `Cc1ccc2nc(-c3ccc4nc(-c5ccc(NC(=O)c6cccc7ccccc67)cc5)sc4c3)sc2c1S(=O)(=O)O.N` [Compound 49], the inhibition at 10 µM in assay [1] was -9 ± 8%. Also, the IC50 at NS3h_2a(JFH1) (setting [2]) was 3.9 µM.

As to `Cc1ccc2nc(-c3ccc4nc(-c5ccc(NC(=S)Nc6ccccc6)cc5)sc4c3)sc2c1S(=O)(=O)O.N` [Compound 50], in assay [1], the inhibition at 10 µM is 9 ± 9%. Moreover, the IC50 at NS3h_2a(JFH1) (setting [2]) is 9.6 µM.

Turning to `Cc1ccc2nc(-c3ccc(NC(=O)c4ccc(NC(=O)c5ccc(NC(=O)OCC6c7ccccc7-c7ccccc76)cc5)cc4)cc3)sc2c1S(=O)(=O)O.N` [Compound 51], the inhibition at 10 µM in assay [1] was -14 ± 26%. Further, at NS3h_2a(JFH1) (setting [2]), the IC50 is 1.9 µM.

For `Cc1ccc2nc(-c3ccc4nc(-c5ccc(NC(=O)Nc6ccccc6)cc5)sc4c3)sc2c1S(=O)(=O)O.N` [Compound 52], the inhibition at 10 µM in assay [1] is -18 ± 56%. In addition, the IC50 at NS3h_2a(JFH1) (setting [2]) was 6 µM.

In the case of `Cc1ccc2nc(-c3ccc4nc(-c5ccc(NCc6ccccc6)cc5)sc4c3)sc2c1S(=O)(=O)O` [Compound 53], the inhibition at 10 µM in assay [1] is -64 ± 25%. The IC50 on NS3h_2a(JFH1) (setting [2]) was 13.5 µM.

`Cc1ccc2nc(-c3ccc4nc(-c5ccc(NC(=O)Nc6ccc(Cl)cc6)cc5)sc4c3)sc2c1S(=O)(=O)O` [Compound 54]: in assay [1], the inhibition at 10 µM was 35 ± 28%. Further, the IC50 at NS3h_2a(JFH1) (setting [2]) is 4.4 µM.

Consider `COc1ccc(NC(=O)Nc2ccc(-c3nc4ccc(-c5nc6ccc(C)c(S(=O)(=O)O)c6s5)cc4s3)cc2)cc1` [Compound 55], for which the inhibition at 10 µM in assay [1] amounted to 21 ± 10%. Moreover, the IC50 on NS3h_2a(JFH1) (setting [2]) is 6.4 µM.

As for `Cc1ccc2nc(-c3ccc4nc(-c5ccc6nc(-c7ccc8nc(-c9ccc(N)cc9)sc8c7)sc6c5)sc4c3)sc2c1S(=O)(=O)O` [Compound P4, 2′″-(4-aminophenyl)-6-methyl-[2,6′:2″,6′″-quaterbenzo[d]thiazole]-7-sulfonic acid], the “ability to decrease the amount of HCV RNA present in the cultures” value in assay [1] (10 μM) was “showed any ability to decrease the amount of HCV RNA present in the cultures”. The half-maximal inhibitory concentration (IC50) on NS3h_2a(JFH1) (DNA-based MBHA, genotype 2a(JFH1), read-out: DNA Helicase NS3h_2a IC50 (μM) ± SD) amounted to 1 ± 0.3 µM.
